Laboratory results reported in publication PMC4621749 (The Journal of General Physiology, 2015).

Molecular target: T1, frog TRPV3 (Xenopus tropicalis TRPV3) (Xenopus tropicalis, UniProt F6UZP3)
T1 sequence (F6UZP3 1-773): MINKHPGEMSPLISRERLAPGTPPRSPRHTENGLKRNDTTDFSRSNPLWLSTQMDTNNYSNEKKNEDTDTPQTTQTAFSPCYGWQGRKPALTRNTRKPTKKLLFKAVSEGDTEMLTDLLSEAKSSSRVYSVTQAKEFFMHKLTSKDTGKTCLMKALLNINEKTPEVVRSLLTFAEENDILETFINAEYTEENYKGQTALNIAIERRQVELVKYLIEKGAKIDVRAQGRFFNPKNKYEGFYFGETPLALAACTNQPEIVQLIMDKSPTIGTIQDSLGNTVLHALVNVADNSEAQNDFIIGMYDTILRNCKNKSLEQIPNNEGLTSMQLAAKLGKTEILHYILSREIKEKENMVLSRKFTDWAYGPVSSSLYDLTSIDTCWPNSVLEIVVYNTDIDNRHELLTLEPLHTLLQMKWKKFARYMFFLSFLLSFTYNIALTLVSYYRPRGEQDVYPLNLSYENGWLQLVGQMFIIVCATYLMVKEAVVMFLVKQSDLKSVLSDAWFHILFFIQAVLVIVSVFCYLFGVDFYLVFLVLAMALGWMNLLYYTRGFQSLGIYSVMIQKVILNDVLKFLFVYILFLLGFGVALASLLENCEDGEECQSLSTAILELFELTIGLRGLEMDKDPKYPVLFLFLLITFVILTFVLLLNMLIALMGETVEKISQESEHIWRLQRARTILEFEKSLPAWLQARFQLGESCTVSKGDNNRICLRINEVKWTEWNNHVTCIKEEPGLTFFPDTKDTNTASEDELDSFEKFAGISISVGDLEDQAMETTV
Assay: whole-cell patch clamp, HEK293, Hill fit of current density
Format: cell-based

NCCOB(c1ccccc1)c1ccccc1 [2-APB]
EC50: 269 ± 28 µM
